{"source": "patent US9974743B2", "about": "“Device and method for delivery of a medicament” (Philip Morris Products S.A., priority 2009, dated 2018)", "origin": "cited, not measured here", "conditions": "25° C.", "data": [{"molecule": "CN1CCCC1c1cccnc1", "note": "(stereo not shown) [Nicotine Control, Nicotine]", "values": [{"measurement": "vapor pressure", "value": 0.04, "unit": "mm Hg"}]}]}
